Consider 29 compounds from patent US9212182B2, “Bicyclic sulfonamide compounds as sodium channel inhibitors” (AMGEN INC., priority 2013, dated 2015).

For the assay, the target named is Nav 1.7 (Homo sapiens (Human), UniProt Q15858). Kind of assay: in-vitro Nav 1.7 PX (IC50). In kind it is cell-based.
[1] abbreviates: in-vitro Nav 1.7 PX data (PatchXpress).

Like-named read-outs stand apart in the source and are kept apart here.

Chain of Nav 1.7 (Q15858 whole entry): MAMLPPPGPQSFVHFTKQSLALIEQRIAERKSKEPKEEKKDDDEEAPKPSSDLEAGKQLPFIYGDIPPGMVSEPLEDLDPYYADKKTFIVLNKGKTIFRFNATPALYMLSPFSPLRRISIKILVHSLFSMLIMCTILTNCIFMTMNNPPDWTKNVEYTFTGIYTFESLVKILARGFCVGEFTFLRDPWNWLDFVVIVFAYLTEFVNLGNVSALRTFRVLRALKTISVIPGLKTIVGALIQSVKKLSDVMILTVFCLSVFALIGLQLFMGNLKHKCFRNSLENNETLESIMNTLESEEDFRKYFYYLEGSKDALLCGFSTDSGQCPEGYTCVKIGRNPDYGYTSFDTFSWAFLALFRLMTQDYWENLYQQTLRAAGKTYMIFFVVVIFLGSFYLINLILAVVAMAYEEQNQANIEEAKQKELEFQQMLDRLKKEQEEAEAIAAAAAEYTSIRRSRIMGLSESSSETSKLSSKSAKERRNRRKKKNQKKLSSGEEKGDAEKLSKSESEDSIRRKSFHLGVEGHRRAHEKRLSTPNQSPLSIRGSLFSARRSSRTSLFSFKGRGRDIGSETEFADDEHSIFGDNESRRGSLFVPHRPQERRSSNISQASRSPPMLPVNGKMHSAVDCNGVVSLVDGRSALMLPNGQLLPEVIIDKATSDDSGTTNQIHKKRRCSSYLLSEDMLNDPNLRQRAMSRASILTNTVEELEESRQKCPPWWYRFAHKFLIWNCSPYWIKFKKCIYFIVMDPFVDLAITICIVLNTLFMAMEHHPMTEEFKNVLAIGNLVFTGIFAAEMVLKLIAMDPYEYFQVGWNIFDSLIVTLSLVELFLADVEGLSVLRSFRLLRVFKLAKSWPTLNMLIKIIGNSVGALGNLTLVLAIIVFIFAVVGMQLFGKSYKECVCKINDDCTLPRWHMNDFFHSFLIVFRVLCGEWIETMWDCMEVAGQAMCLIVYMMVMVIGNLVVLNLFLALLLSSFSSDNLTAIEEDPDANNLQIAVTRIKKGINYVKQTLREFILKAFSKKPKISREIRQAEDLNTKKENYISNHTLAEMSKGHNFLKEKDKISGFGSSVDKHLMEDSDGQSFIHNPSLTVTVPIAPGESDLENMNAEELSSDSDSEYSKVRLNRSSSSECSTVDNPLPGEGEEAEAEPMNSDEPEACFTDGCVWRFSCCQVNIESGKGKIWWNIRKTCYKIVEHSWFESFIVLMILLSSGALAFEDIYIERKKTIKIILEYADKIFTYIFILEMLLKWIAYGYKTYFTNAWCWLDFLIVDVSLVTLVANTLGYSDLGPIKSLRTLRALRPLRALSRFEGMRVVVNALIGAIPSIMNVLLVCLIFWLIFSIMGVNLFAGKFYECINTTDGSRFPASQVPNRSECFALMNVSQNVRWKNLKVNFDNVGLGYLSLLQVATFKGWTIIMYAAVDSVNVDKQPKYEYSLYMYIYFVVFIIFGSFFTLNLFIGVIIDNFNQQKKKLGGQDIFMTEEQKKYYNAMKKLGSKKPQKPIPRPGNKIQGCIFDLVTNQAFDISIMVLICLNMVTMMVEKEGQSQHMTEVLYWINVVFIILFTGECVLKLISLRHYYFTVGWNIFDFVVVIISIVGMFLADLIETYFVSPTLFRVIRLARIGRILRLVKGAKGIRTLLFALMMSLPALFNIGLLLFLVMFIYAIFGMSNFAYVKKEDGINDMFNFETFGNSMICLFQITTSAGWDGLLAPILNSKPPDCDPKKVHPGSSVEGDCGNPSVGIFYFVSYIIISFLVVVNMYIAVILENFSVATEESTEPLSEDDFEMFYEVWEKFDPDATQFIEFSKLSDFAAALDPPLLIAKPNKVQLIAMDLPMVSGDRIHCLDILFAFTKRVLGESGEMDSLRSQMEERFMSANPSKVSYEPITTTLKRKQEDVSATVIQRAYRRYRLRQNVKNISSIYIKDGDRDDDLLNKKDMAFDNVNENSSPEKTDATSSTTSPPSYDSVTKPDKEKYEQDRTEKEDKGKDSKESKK

Turning to `COc1cc(-c2cc(F)cc(C#N)c2)ccc1-n1c(=O)ccc2cc(S(=O)(=O)Nc3ccon3)ccc21` [Example 1021, 1-(3′-cyano-5′-fluoro-3-methoxy-4-biphenylyl)-N-3-isoxazolyl-2-oxo-1,2-dihydro-6-quinolinesulfonamide], the concentration for half-maximal inhibition (IC50) (in-vitro Nav 1.7 PX data) amounted to 105 nM.
Where the note is “in-vitro PatchXpress (PX)”, `COc1cc(-c2cccc(C(F)(F)F)c2)ccc1-n1c(=O)ccc2cc(S(=O)(=O)Nc3cccnn3)ccc21` (atropisomer, axis not shown; (M)) [Example 370, (M)-1-(3-methoxy-3′-(trifluoromethyl)-4-biphenylyl)-2-oxo-N-3-pyridazinyl-1,2-dihydro-6-quinolinesulfonamide] gave a concentration for half-maximal inhibition (IC50) of 2430 nM.
Regarding `O=c1ccc2cc(S(=O)(=O)Nc3ccon3)ccc2n1[C@@H]1CC[C@@H](c2cccc(F)c2)C1` [Example 1143, 1-((1R,3R)-3-(3-fluorophenyl)cyclopentyl)-N-3-isoxazolyl-2-oxo-1,2-dihydro-6-quinolinesulfonamide, 1-((1R,3S)-3-(3-fluorophenyl)cyclopentyl)-N-3-isoxazolyl-2-oxo-1,2-dihydro-6-quinolinesulfonamide, 1-((1S,3R)-3-(3-fluorophenyl)cyclopentyl)-N-3-isoxazolyl-2-oxo-1,2-dihydro-6-quinolinesulfonamide, 1-((1S,3S)-3-(3-fluorophenyl)cyclopentyl)-N-3-isoxazolyl-2-oxo-1,2-dihydro-6-quinolinesulfonamide], the 50% inhibitory concentration (IC50) was found to be 8910 nM.
As to `COc1cc(Cl)cc(-c2cc(OC)c(-n3c(=O)ccc4cc(S(=O)(=O)Nc5ncco5)ccc43)cc2F)c1` [Example 926, 1-(3′-chloro-2-fluoro-5,5′-dimethoxy-4-biphenylyl)-N-1,3-oxazol-2-yl-2-oxo-1,2-dihydro-6-quinolinesulfonamide], for the setting “in-vitro Nav 1.7 PX data”, the IC50 was 6 nM.
Consider `COc1cc(-c2cccc(C)c2)ccc1-n1c(=O)ccc2cc(S(=O)(=O)Nc3ccon3)ccc21` (atropisomer, axis not shown; (M)) [Example 583, (M)-N-3-isoxazolyl-1-(3-methoxy-3′-methyl-4-biphenylyl)-2-oxo-1,2-dihydro-6-quinolinesulfonamide], for which the IC50 was over 10000 nM.
Where the note is “in-vitro Nav 1.7 PX data”, `COc1cc(-c2cccc3c2OCC3)ccc1-n1c(=O)ccc2cc(S(=O)(=O)Nc3ccon3)ccc21` [Example 789, 1-(4-(2,3-dihydro-1-benzofuran-7-yl)-2-methoxyphenyl)-N-3-isoxazolyl-2-oxo-1,2-dihydro-6-quinolinesulfonamide] gave a half-inhibitory concentration (IC50) of 89 nM.
As for `COc1cc(Cl)cc(-c2ccc(-n3c(=O)ccc4cc(S(=O)(=O)Nc5ncco5)ccc43)c(OC)c2)c1` [Example 925, 1-(3′-chloro-3,5′-dimethoxy-4-biphenylyl)-N-1,3-oxazol-2-yl-2-oxo-1,2-dihydro-6-quinolinesulfonamide], where the note is “in-vitro Nav 1.7 PX data”, the 50% inhibitory concentration (IC50) is 22 nM.
`COc1cc(-c2cccc(F)c2)c(Cl)cc1-n1c(=O)cc(C)c2cc(S(=O)(=O)Nc3ccon3)ccc21` [Example 567, 1-(2-chloro-3′-fluoro-5-methoxy-4-biphenylyl)-N-3-isoxazolyl-4-methyl-2-oxo-1,2-dihydro-6-quinolinesulfonamide] showed a concentration for half-maximal inhibition (IC50) of 162 nM.
`COc1cc(-c2cccc(C(F)(F)F)c2)ccc1-n1c(=O)ccc2cc(S(=O)(=O)Nc3ccnc(C)n3)ccc21` [Example 947, 1-(3-methoxy-3′-(trifluoromethyl)-4-biphenylyl)-N-(2-methyl-4-pyrimidinyl)-2-oxo-1,2-dihydro-6-quinolinesulfonamide] displayed an IC50 (in-vitro Nav 1.7 PX data) of 51 nM.
As to `COc1ccc(-c2ccc(F)cc2)cc1-n1c(=O)ccc2cc(S(=O)(=O)Nc3ccon3)ccc21` [Example 844, 1-(4′-fluoro-4-methoxy-3-biphenylyl)-N-3-isoxazolyl-2-oxo-1,2-dihydro-6-quinolinesulfonamide], where the note is “in-vitro Nav 1.7 PX data”, the concentration for half-maximal inhibition (IC50) stood at 215 nM.
Still for that read-out and setting: to `COc1cc(Cl)c(-c2cccc(F)c2)cc1-n1c(=O)ccc2cc(S(=O)(=O)Nc3ccon3)ccc21` (atropisomer, axis not shown; (P)) [Example 608, (P)-1-(6-chloro-3′-fluoro-4-methoxy-3-biphenylyl)-N-3-isoxazolyl-2-oxo-1,2-dihydro-6-quinolinesulfonamide] belongs 12 nM; to `COc1cc(F)cc(-c2ccc(-n3c(=O)ccc4cc(S(=O)(=O)Nc5ncccn5)ccc43)c(OC)c2)c1` [Example 996, 1-(3′-fluoro-3,5′-dimethoxy-4-biphenylyl)-2-oxo-N-2-pyrimidinyl-1,2-dihydro-6-quinolinesulfonamide], 52 nM; to `COc1cc(-c2cc(F)cc(Cl)c2)c(F)cc1-n1c(=O)ccc2cc(S(=O)(=O)Nc3ccsn3)ccc21` [Example 921, 1-(3′-chloro-2,5′-difluoro-5-methoxy-4-biphenylyl)-N-3-isothiazolyl-2-oxo-1,2-dihydro-6-quinolinesulfonamide], 37 nM.
`COc1ccc(-c2ccc(Cl)cc2)cc1-n1c(=O)ccc2cc(S(=O)(=O)Nc3ccon3)ccc21` [Example 845, 1-(4′-chloro-4-methoxy-3-biphenylyl)-N-3-isoxazolyl-2-oxo-1,2-dihydro-6-quinolinesulfonamide] returned a concentration for half-maximal inhibition (IC50) (in-vitro Nav 1.7 PX data) of 57 nM.
Same read-out and setting: to `COc1cc(-c2cccc(C(F)(F)F)c2)c(F)cc1-n1c(=O)ccc2cc(S(=O)(=O)Nc3ccon3)c(F)cc21` [Example 980, 7-fluoro-1-(2-fluoro-5-methoxy-3′-(trifluoromethyl)-4-biphenylyl)-N-3-isoxazolyl-2-oxo-1,2-dihydro-6-quinolinesulfonamide] belongs 22 nM; to `O=c1ccc2cc(S(=O)(=O)Nc3ccon3)ccc2n1-c1ccc(-c2cccc(C(F)(F)F)c2)cc1` [Example 591, N-3-isoxazolyl-2-oxo-1-(3′-(trifluoromethyl)-4-biphenylyl)-1,2-dihydro-6-quinolinesulfonamide], 732 nM; to `COc1cc(C#CC2CCCC2)c(F)cc1-n1c(=O)ccc2cc(S(=O)(=O)Nc3ncc(F)cn3)ccc21` [Example 1135, 1-(4-(cyclopentylethynyl)-5-fluoro-2-methoxyphenyl)-N-(5-fluoro-2-pyrimidinyl)-2-oxo-1,2-dihydro-6-quinolinesulfonamide], 114 nM.
Same read-out and setting: in the case of `COc1cc(-c2cccc(OC)c2C)c(C)cc1-n1c(=O)ccc2cc(S(=O)(=O)Nc3ncccn3)ccc21` [Example 968, 1-(3′,5-dimethoxy-2,2′-dimethyl-4-biphenylyl)-2-oxo-N-2-pyrimidinyl-1,2-dihydro-6-quinolinesulfonamide] it was 57 nM; in that of `COc1cc(-c2cccc(OC)c2F)c(F)cc1-n1c(=O)ccc2cc(S(=O)(=O)Nc3ccon3)ccc21` [Example 734, 1-(2,2′-difluoro-3′,5-dimethoxy-4-biphenylyl)-N-3-isoxazolyl-2-oxo-1,2-dihydro-6-quinolinesulfonamide], 81 nM.
In turn, `COc1cc(-c2cc(Cl)cc(C#N)c2)c(F)cc1-n1c(=O)ccc2cc(S(=O)(=O)Nc3ccon3)ccc21` (atropisomer, axis not shown; (P)) [Example 518, (P)-1-(3′-chloro-5′-cyano-2-fluoro-5-methoxy-4-biphenylyl)-N-3-isoxazolyl-2-oxo-1,2-dihydro-6-quinolinesulfonamide] had an IC50 (in-vitro PatchXpress (PX)) of 2000 nM.
The compound `COc1cc(-c2cnc(OC)c(Cl)c2)c(F)cc1-n1c(=O)ccc2cc(S(=O)(=O)Nc3cccnn3)ccc21` (atropisomer, axis not shown; (P)) [Example 1157, (P)-1-(4-(5-chloro-6-methoxy-3-pyridinyl)-5-fluoro-2-methoxyphenyl)-2-oxo-N-3-pyridazinyl-1,2-dihydro-6-quinolinesulfonamide] registered an IC50 of 63 nM.
`COc1cc(CC2CCOCC2)c(F)cc1-n1c(=O)ccc2cc(S(=O)(=O)Nc3ccon3)ccc21` [Example 1121, 1-(5-fluoro-2-methoxy-4-(tetrahydro-2H-pyran-4-ylmethyl)phenyl)-N-3-isoxazolyl-2-oxo-1,2-dihydro-6-quinolinesulfonamide] displayed a half-maximal inhibitory concentration (IC50) (in-vitro Nav 1.7 PX data) of 694 nM.
Consider `COc1cc(-c2cc(F)cc(Cl)c2)c(F)cc1-n1c(=O)ccc2cc(S(=O)(=O)Nc3ccc(F)cn3)ccc21` [Example 920, 1-(3′-chloro-2,5′-difluoro-5-methoxy-4-biphenylyl)-N-(5-fluoro-2-pyridinyl)-2-oxo-1,2-dihydro-6-quinolinesulfonamide], for which, where the note is “in-vitro Nav 1.7 PX data”, half-maximal inhibition (IC50) required 60 nM.
`COc1cc(-c2cccc(C)c2)ccc1-n1c(=O)ccc2cc(S(=O)(=O)Nc3ccon3)ccc21` (atropisomer, axis not shown; (P)) [Example 584, (P)-N-3-isoxazolyl-1-(3-methoxy-3′-methyl-4-biphenylyl)-2-oxo-1,2-dihydro-6-quinolinesulfonamide] yielded an IC50 of 13 nM.
Compound `COc1cc(-c2cc(OC)c(-n3c(=O)ccc4cc(S(=O)(=O)Nc5ncco5)ccc43)cc2F)ccc1Cl` [Example 1040, 1-(4′-chloro-2-fluoro-3′,5-dimethoxy-4-biphenylyl)-N-1,3-oxazol-2-yl-2-oxo-1,2-dihydro-6-quinolinesulfonamide] had an IC50 under setting [1] of 31 nM.
Same read-out and setting: in the case of `COc1cc(-c2cc(C)c(F)cc2F)ccc1-n1c(=O)ccc2cc(S(=O)(=O)Nc3ccon3)ccc21` [Example 1065, 1-(2′,4′-difluoro-3-methoxy-5′-methyl-4-biphenylyl)-N-3-isoxazolyl-2-oxo-1,2-dihydro-6-quinolinesulfonamide] it was 9 nM.
On to `COc1cc(-c2cc(F)cc(F)c2F)c(F)cc1-n1c(=O)ccc2cc(S(=O)(=O)Nc3ccon3)ccc21` (atropisomer, axis not shown; (P)) [Example 514, (P)—N-3-isoxazolyl-2-oxo-1-(2,2′,3′,5′-tetrafluoro-5-methoxy-4-biphenylyl)-1,2-dihydro-6-quinolinesulfonamide], for which it took 18 nM to reach half-maximal inhibition (in-vitro PatchXpress (PX)) (IC50).
For the compound `COc1cc(C2CCCCC2)c(F)cc1-n1c(=O)ccc2cc(S(=O)(=O)Nc3ccon3)ccc21` [Example 1077, 1-(4-cyclohexyl-5-fluoro-2-methoxyphenyl)-N-3-isoxazolyl-2-oxo-1,2-dihydro-6-quinolinesulfonamide], the 50% inhibitory concentration (IC50) (in-vitro Nav 1.7 PX data) was determined as 38 nM.
Still for that read-out and setting: in the case of `COc1cc(-c2ccc(Cl)cc2)c(F)cc1-n1c(=O)ccc2cc(S(=O)(=O)Nc3ncccn3)ccc21` (atropisomer, axis not shown) [Example 598, 1-(4′-chloro-2-fluoro-5-methoxy-4-biphenylyl)-2-oxo-N-2-pyrimidinyl-1,2-dihydro-6-quinolinesulfonamide] it was 28 nM.

As usually defined, the IC50 is the concentration at which inhibition is half-maximal. Higher therefore signals weaker potency in that assay.
